The values below come from article PMC5557916, “A new method to investigate the catalytic mechanism of YhdE pyrophosphatase by using a pyrophosphate fluorescence probe” (Scientific Reports, 2017).

The target in one data set is T1, YhdE (Escherichia coli, UniProt P25536).
T1 construct: recombinant, cloned in vector pFO4, expressed in E. coli BL21(DE3); PDB entries are of the E33A mutant
Description: fluorescence PPi sensor (4-isoACBA-Zn(II)), real-time. It is filed as biochemical. The note with it: 20 mM HEPES pH 7.0, 0.4 mM Zn2+, 0.1 mM 4-isoACBA, 298 K; 75 nM enzyme.

Substrate in data set [1]: Cc1cn([C@H]2C[C@H](O)[C@@H](COP(=O)(O)OP(=O)(O)OP(=O)(O)O)O2)c(=O)[nH]c1=O
The description is as above. It is filed as biochemical, Escherichia coli. The note with it: 20 mM HEPES pH 7.0, 0.4 mM Zn2+, 0.1 mM 4-isoACBA, 298 K, 7.5 μM enzyme, 25.0 °C.

For orientation: Km means the concentration of substrate that gives half-maximal velocity.

Turning to `Cc1cn([C@H]2C[C@H](O)[C@@H](COP(=O)(O)OP(=O)(O)OP(=O)(O)O)O2)c(=O)[nH]c1=O` [dTTP], at YhdE, the “apparent Km” value is reported as “somewhat surprisingly, is similar to that of the wild-type YhdE”.

B1: YhdE (Escherichia coli K-12; E33A) (protein)
chain: MTSLYLASGSPRRQELLAQLGVTFERIVTGIEAQRQPQESAQQYVVRLAREKARAGVAQTAKDLPVLGADTIVILNGEVLEKPRDAEHAAQMLRKLSGQTHQVMTAVALADSQHILDCLVVTDVTFRTLTDEDIAGYVASDEPLDKAGAYGIQGLGGCFVRKINGSYHAVVGLPLVETYELLSNFNALREKRDKHDG
notes: recombinant, cloned in vector pFO4, expressed in E. coli BL21(DE3); PDB entries are of the E33A mutant
With B1, the Km in data set [1] was determined as 75 µM.
